# How the values were obtained:
# IL-12p75 = conditions: short treatment; Mattner et al. 2000; cited from earlier work
# NOD mice = conditions: cited from earlier work
# IL-12 = conditions: cited from earlier work
# [1] = system: vascularized heart allograft; assay: Vascularized heart allograft survival, C57BL/6 into BALB/c recipients; type: in vivo, mouse; conditions: Dose 5 (unit not given) per os 3x/w every other day from d-1 until d+30
# Source text: Fully vascularized hearts were grafted into the abdomen of recipient mice as described (Corry, R. J., H. J. Winn, and P. S. Russell. Primarily vascularized allografts of hearts in mice. The role of H-2D, H-2K, and non-H-2 antigens in rejection. Transplantation. 1973, 16:343). Graft survival was monitored by palpation and rejection was confirmed by direct graft inspection.
# [2] = administered to NOD mice starting from three weeks of age
smiles,measurement,setting,value
"C=C1/C(=C\C=C2/CCC[C@]3(C)[C@@H]([C@H](C)CCCC(C)(C)O)CC[C@@H]23)C[C@@H](O)C[C@@H]1O [1,25(OH)2D3, 1,25-dihydroxyvitamin D3]","LPS-induced serum levels of both cytokines (IL-12, IFN-γ)",IL-12p75,can be inhibited
same,preventing progression of diabetes,NOD mice; administered to NOD mice from 8 weeks of age,ineffective
same,incidence of insulitis,NOD mice; [2],reduces the incidence of insulitis
same,type 1 DM development,NOD mice; [2],prevents type 1 DM development
same,IL-12 production,IL-12,inhibits IL-12 production
"C=C1/C(=C\C=C2/CCC[C@@]3(C)C2CCC3[C@H](C)CCCC(C)(C)O)C[C@@H](O)C[C@@H]1O (stereo partly shown) [Reference, reference compound]",Graft survival (days) Mean,[1],14.33 days
C=C1/C(=C\C=C2/CCC[C@@]3(C)C2CCC3[C@@H](C)CCCC(C)(C)O)C[C@@H](O)C[C@@H]1O (stereo partly shown) [MC1288],incidence of disease,"NOD mice; treatment of 8 week-old NOD mice, combined or alone",neither treatment alone was effective
